{
  "source": "patent US8134015B2",
  "about": "“Compound inhibiting in vivo phosphorous transport and medicine containing the same” (Kyowa Hakko Kirin Co., Ltd., priority 2003, dated 2012)",
  "note": "pIC50: −log10 of the molar value.",
  "data": [
    {"target": "T1, rat NaPi-2b (Rattus norvegicus, UniProt Q9JJ09)", "T1 construct": "expressed in transfected cells; host or cells: Xenopus oocytes injected with cRNA", "T1 sequence (Q9JJ09 1-695)": "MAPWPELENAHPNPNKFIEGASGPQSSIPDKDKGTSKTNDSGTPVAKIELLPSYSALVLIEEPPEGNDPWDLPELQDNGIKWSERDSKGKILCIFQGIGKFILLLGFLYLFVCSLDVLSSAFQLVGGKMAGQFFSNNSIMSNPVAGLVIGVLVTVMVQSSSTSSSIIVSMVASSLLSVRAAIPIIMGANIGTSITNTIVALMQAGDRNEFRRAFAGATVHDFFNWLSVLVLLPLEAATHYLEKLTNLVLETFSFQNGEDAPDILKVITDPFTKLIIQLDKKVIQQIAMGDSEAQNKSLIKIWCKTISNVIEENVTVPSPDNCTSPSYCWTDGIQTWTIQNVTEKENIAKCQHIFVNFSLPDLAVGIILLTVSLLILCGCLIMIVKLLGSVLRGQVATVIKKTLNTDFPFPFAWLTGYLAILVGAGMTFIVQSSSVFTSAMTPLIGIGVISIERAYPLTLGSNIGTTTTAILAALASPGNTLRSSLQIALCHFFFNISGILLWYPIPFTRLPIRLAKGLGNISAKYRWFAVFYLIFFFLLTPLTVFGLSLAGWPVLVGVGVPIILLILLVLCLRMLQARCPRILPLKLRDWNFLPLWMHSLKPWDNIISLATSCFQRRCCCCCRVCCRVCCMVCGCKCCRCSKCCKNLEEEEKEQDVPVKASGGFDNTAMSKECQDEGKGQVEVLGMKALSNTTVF", "test": "Sodium-dependent phosphate uptake of Xenopus oocytes which expressed NaPi-2b (32P)", "assay_type": "cell-based", "details": "Xenopus oocytes expressing rat NaPi-2b, 32P radioactive phosphorus; read-out: IC50 (phosphate uptake inhibitory activity)", "method": "Pharmacological Test Example 1\nExperiment of Sodium-Dependent Phosphate Uptake of Xenopus oocytes which Expressed NaPi-2b\nDegenerate primers were prepared from sequences of mouse NaPi-2b disclosed in Hilfiker H. et al., Pro Natl Acad Sci USA, 95 (24): 14564-14569, […] and sequences of human and rat NaPi-2a disclosed in Magagnin S. et al., Proc Natl Aca Sci USA, 90 (13): 5979-5983, 1993. RNA was extracted from the rat small intestine using ISOGEN; manufactured by NIPPON GENE CO., LTD (Japan). 400 bp gene fragments were obtained by PCR using, as a template, a cDNA library prepared with a cDNA synthesis kit (manufactured by STRATAGENE (US)). Thereafter, the above rat small intestine cDNA library was screened using the gene fragment as a probe, and the whole gene sequence of rat NaPi-2b was cloned. cRNA was synthesized from the cloned rat NaPi-2b cDNA with a cRNA synthesis kit (manufactured by Ambion (US)). The synthesized cRNA was injected into Xenopus oocytes (obtained from COPACETIC (Japan)) with a liquid microinjector (manufactured by Drummond (US)) and was cultured for 2 days to express rat NaPi-2b. Thereafter, for a group of derivatives, phosphate uptake inhibitory activity were measured using the Xenopus oocytes with ^32P radioactive phosphorus (manufactured by Daiichi Kagaku Inc. (Japan)). […] The inhibitory activity for 300 μM and 100 μM was determined from the same inhibition curve and expressed in percentage inhibition (%) in Table 5.", "values": [
      {"smiles": "COc1ccc(C(=O)Nc2ccc(Cl)cc2C(=O)N/N=C/c2cccc(C)c2)cc1OC", "note": "[Compound 67, N-[4-Chloro-2-(3-methyl-benzylidene-hydrazinocarbonyl)-phenyl]-3,4-dimethoxy-benzamide]", "pIC50": 6.19},
      {"smiles": "COc1ccc(C(=O)Nc2ccc(Cl)cc2C(=O)N/N=C/c2cccc(O)c2)cc1OC", "note": "[Compound 69, N-[4-Chloro-2-(3-hydroxy-benzylidene-hydrazinocarbonyl)-phenyl]-3,4-dimethoxy-benzamide]", "pIC50": 5.41},
      {"smiles": "COc1ccc(C(=O)Nc2ccc(Cl)cc2C(=O)N/N=C/c2ccc(O)cc2)cc1OC", "note": "[Compound 70, N-[4-Chloro-2-(4-hydroxy-benzylidene-hydrazinocarbonyl)-phenyl]-3,4-dimethoxy-benzamide]", "pIC50": 5.02},
      {"smiles": "COc1ccc(C(=O)Nc2cc(Cl)ccc2C(=O)N/N=C/c2cccc(F)c2)cc1OC", "note": "[Compound 71, N-[5-Chloro-2-(3-fluoro-benzylidene-hydrazinocarbonyl)-phenyl]-3,4-dimethoxy-benzamide]", "pIC50": 4.91},
      {"smiles": "COc1ccc(C(=O)Nc2cc(Cl)ccc2C(=O)N/N=C/c2ccc(F)cc2)cc1OC", "note": "[Compound 72, N-[5-Chloro-2-(4-fluoro-benzylidene-hydrazinocarbonyl)-phenyl]-3,4-dimethoxy-benzamide]", "pIC50": 4.98},
      {"smiles": "COc1ccc(C(=O)Nc2cc(Cl)ccc2C(=O)N/N=C/c2cccc(C)c2)cc1OC", "note": "[Compound 73, N-[5-Chloro-2-(3-methyl-benzylidene-hydrazinocarbonyl)-phenyl]-3,4-dimethoxy-benzamide]", "pIC50": 5.76},
      {"smiles": "COc1ccc(C(=O)Nc2cc(Cl)ccc2C(=O)N/N=C/c2ccc(C)cc2)cc1OC", "note": "[Compound 74, N-[5-Chloro-2-(4-methyl-benzylidene-hydrazinocarbonyl)-phenyl]-3,4-dimethoxy-benzamide]", "pIC50": 5.67},
      {"smiles": "COc1ccc(C(=O)Nc2cc(Cl)ccc2C(=O)N/N=C/c2cccc(O)c2)cc1OC", "note": "[Compound 75, N-[5-Chloro-2-(3-hydroxy-benzylidene-hydrazinocarbonyl)-phenyl]-3,4-dimethoxy-benzamide]", "pIC50": 4.89},
      {"smiles": "O=C(Nc1ccccc1C(=O)N/N=C/c1cccc(F)c1)c1ccc(F)cc1", "note": "[Compound 76, 4-Fluoro-N-[2-(3-fluoro-benzylidene-hydrazinocarbonyl)-phenyl]-benzamide]", "pIC50": 4.88},
      {"smiles": "O=C(Nc1ccccc1C(=O)N/N=C/c1ccc(F)cc1)c1ccc(F)cc1", "note": "[Compound 77, 4-Fluoro-N-[2-(4-fluoro-benzylidene-hydrazinocarbonyl)-phenyl]-benzamide]", "pIC50": 5.52},
      {"smiles": "Cc1cccc(/C=N/NC(=O)c2ccccc2NC(=O)c2ccc(F)cc2)c1", "note": "[Compound 78, 4-Fluoro-N-[2-(3-methyl-benzylidene-hydrazinocarbonyl)-phenyl]-benzamide]", "pIC50": 5.14},
      {"smiles": "Cc1ccc(/C=N/NC(=O)c2ccccc2NC(=O)c2ccc(F)cc2)cc1", "note": "[Compound 79, 4-Fluoro-N-[2-(4-methyl-benzylidene-hydrazinocarbonyl)-phenyl]-benzamide]", "pIC50": 5.54},
      {"smiles": "O=C(Nc1ccccc1C(=O)N/N=C/c1cccc(O)c1)c1ccc(F)cc1", "note": "[Compound 80, 4-Fluoro-N-[2-(3-hydroxy-benzylidene-hydrazinocarbonyl)-phenyl]-benzamide]", "pIC50": 4.96},
      {"smiles": "O=C(Nc1ccccc1C(=O)N/N=C/c1cccc(F)c1)c1cccc(F)c1", "note": "[Compound 81, 3-Fluoro-N-[2-(3-fluoro-benzylidene-hydrazinocarbonyl)-phenyl]-benzamide]", "pIC50": 5.25},
      {"smiles": "O=C(Nc1ccccc1C(=O)N/N=C/c1ccc(F)cc1)c1cccc(F)c1", "note": "[Compound 82, 3-Fluoro-N-[2-(4-fluoro-benzylidene-hydrazinocarbonyl)-phenyl]-benzamide]", "pIC50": 5.22},
      {"smiles": "Cc1cccc(/C=N/NC(=O)c2ccccc2NC(=O)c2cccc(F)c2)c1", "note": "[Compound 83, 3-Fluoro-N-[2-(3-methyl-benzylidene-hydrazinocarbonyl)-phenyl]-benzamide]", "pIC50": 5.53},
      {"smiles": "Cc1ccc(/C=N/NC(=O)c2ccccc2NC(=O)c2cccc(F)c2)cc1", "note": "[Compound 84, 3-Fluoro-N-[2-(4-methyl-benzylidene-hydrazinocarbonyl)-phenyl]-benzamide]", "pIC50": 5.07},
      {"smiles": "O=C(Nc1ccccc1C(=O)N/N=C/c1cccc(O)c1)c1cccc(F)c1", "note": "[Compound 85, 3-Fluoro-N-[2-(3-hydroxy-benzylidene-hydrazinocarbonyl)-phenyl]-benzamide]", "pIC50": 5.70},
      {"smiles": "O=C(Nc1ccccc1C(=O)N/N=C/c1ccc(O)cc1)c1cccc(F)c1", "note": "[Compound 86, 3-Fluoro-N-[2-(4-hydroxy-benzylidene-hydrazinocarbonyl)-phenyl]-benzamide]", "pIC50": 4.94},
      {"smiles": "COc1ccc(C(=O)Nc2ccc(Br)cc2C(=O)N/N=C/c2ccc(Cl)c(C(F)(F)F)c2)cc1OC", "note": "[Compound 87, N-[4-Bromo-2-(4-chloro-3-trifluoromethyl-benzylidene-hydrazinocarbonyl)-phenyl]-3,4-dimethoxy-benzamide]", "pIC50": 6.54},
      {"smiles": "COc1cc(OC)cc(C(=O)Nc2ccccc2C(=O)N/N=C/c2ccc(Cl)c(C(F)(F)F)c2)c1", "note": "[Compound 89, N-[2-(4-Chloro-3-trifluoromethyl-benzylidene-hydrazinocarbonyl)-phenyl]-3,5-dimethoxy-benzamide]", "pIC50": 5.95},
      {"smiles": "COc1ccc(C(=O)Nc2ccccc2C(=O)N/N=C/c2ccc(Cl)c(C(F)(F)F)c2)cc1", "note": "[Compound 90, N-[2-(4-Chloro-3-trifluoromethyl-benzylidene-hydrazinocarbonyl)-phenyl]-4-methoxy-benzamide]", "pIC50": 5.47},
      {"smiles": "COc1cc(OC)cc(C(=O)Nc2ccccc2C(=O)N/N=C/c2ccc(C)c(C)c2)c1", "note": "[Compound 93, N-[2-(3,4-Dimethyl-benzylidene-hydrazinocarbonyl)-phenyl]-3,5-dimethoxy-benzamide]", "pIC50": 4.96},
      {"smiles": "COc1ccc(C(=O)Nc2ccccc2C(=O)N/N=C/c2ccc(C)c(C)c2)cc1", "note": "[Compound 94, N-[2-(3,4-Dimethyl-benzylidene-hydrazinocarbonyl)-phenyl]-4-methoxy-benzamide]", "pIC50": 5.25},
      {"smiles": "Cc1ccc(/C=N/NC(=O)c2ccccc2NC(=O)c2cccc(F)c2)cc1C", "note": "[Compound 95, N-[2-(3,4-Dimethyl-benzylidene-hydrazinocarbonyl)-phenyl]-3-fluoro-benzamide]", "pIC50": 5.90},
      {"smiles": "Cc1ccc(/C=N/NC(=O)c2ccccc2NC(=O)c2ccc(F)cc2)cc1C", "note": "[Compound 96, N-[2-(3,4-Dimethyl-benzylidene-hydrazinocarbonyl)-phenyl]-4-fluoro-benzamide]", "pIC50": 5.23},
      {"smiles": "COc1ccc(/C=N/NC(=O)c2cc(Br)ccc2NC(=O)c2ccc(OC)c(OC)c2)cc1Br", "note": "[Compound 97, N-[4-Bromo-2-(3-bromo-4-methoxy-benzylidene-hydrazinocarbonyl)-phenyl]-3,4-dimethoxy-benzamide]", "pIC50": 6.29},
      {"smiles": "COc1ccc(/C=N/NC(=O)c2cc(Cl)ccc2NC(=O)c2ccc(OC)c(OC)c2)cc1Br", "note": "[Compound 98, N-[2-(3-Bromo-4-methoxy-benzylidene-hydrazinocarbonyl)-4-chloro-phenyl]-3,4-dimethoxy-benzamide]", "pIC50": 6.21},
      {"smiles": "COc1cc(OC)cc(C(=O)Nc2ccccc2C(=O)N/N=C/c2ccc(OC)c(Br)c2)c1", "note": "[Compound 99, N-[2-(3-Bromo-4-methoxy-benzylidene-hydrazinocarbonyl)-phenyl]-3,5-dimethoxy-benzamide]", "pIC50": 5.52}
    ]}
  ]
}
